Experimental data reported in ChEMBL document CHEMBL1143322, “Probing UDP-galactopyranose mutase binding pocket: a dramatic effect on substitution of the 6-position of UDP-galactofuranose” (Bioorg Med Chem Lett, 2009).

Key:
Escherichia coli [1] = test: Activity of Escherichia coli UDP-galactopyranose mutase by HPLC
Escherichia coli [2] = test: Ratio of Kcat to Km of Escherichia coli UDP-galactopyranose mutase; set-up: unit not given here
Escherichia coli [3] = test: Inhibition of Escherichia coli UDP-galactopyranose mutase assessed as inhibition of conversion to UDP-galactopyranose; details: concentration not given here
[4] = Binding affinity to Escherichia coli UDP-galactopyranose mutase

Row | Compound | Km (Escherichia coli [1]) [µM] | kcat (Escherichia coli [1]) [s⁻¹] | kcat/Km (Escherichia coli [2]) | inhibition (Escherichia coli [3]) [%] | Kd [4] [µM]
1 | O=c1ccn([C@@H]2O[C@H](COP(=O)(O)OP(=O)(O)O[C@H]3O[C@@H](CO)[C@H](O)[C@H]3O)[C@@H](O)[C@H]2O)c(=O)[nH]1 | 600 | 12 | 0.02 | – | –
2 | O=c1ccn([C@@H]2O[C@H](COP(=O)(O)OP(=O)(O)O[C@H]3O[C@@H]([C@@H](O)CF)[C@H](O)[C@H]3O)[C@@H](O)[C@H]2O)c(=O)[nH]1 | 24000 | 7.4 | 0.00034 | 20 | –
3 | O=c1ccn([C@@H]2O[C@H](COP(=O)(O)OP(=O)(O)O)[C@@H](O)[C@H]2O)c(=O)[nH]1 [URIDINE_DIPHOSPHATE] | – | – | – | 22 | 14

The next lines start with results.

Row | Km (Escherichia coli [1]) [µM] | kcat (Escherichia coli [1]) [s⁻¹] | kcat/Km (Escherichia coli [2]) | inhibition (Escherichia coli [3]) [%] | Compound | Kd [4] [µM]
4 | 22 | 27 | 1.23 | – | O=c1ccn([C@@H]2O[C@H](COP(=O)(O)OP(=O)(O)O[C@H]3O[C@@H]([C@@H](O)CO)[C@H](O)[C@H]3O)[C@@H](O)[C@H]2O)c(=O)[nH]1 | –
5 | 861 | 5.7 | 0.0054 | – | O=c1ccn([C@@H]2O[C@H](COP(=O)(O)OP(=O)(O)O[C@H]3O[C@@H]([C@@H](O)CO)[C@H](F)[C@H]3O)[C@@H](O)[C@H]2O)c(=O)[nH]1 | –
6 | 65 | 0.033 | 0.00041 | – | O=c1ccn([C@@H]2O[C@H](COP(=O)(O)OP(=O)(O)O[C@H]3O[C@@H]([C@@H](O)CO)[C@H](O)[C@H]3F)[C@@H](O)[C@H]2O)c(=O)[nH]1 | –
